Tests used:
[1] = tested on: MDA-MB-231, MDA-MB-468, and T47D cells; test: Matrigel cell invasion assay; type: cell-based, human; settings: 100 μM, 48 hours, Matrigel coated membrane
Procedure: The invasive and metastatic potential of cell lines was tested by transmigration through an extracellular matrix (ECM) by a previously described method (26). In brief, the upper chamber of the matrix in 24-well Matrigel invasion chamber plates (BD BioCoat™ Matrigel™ Chamber, BD Biosciences, San Jose, CA) was loaded with 5×10^4 cells in 500 μl of the appropriate medium (cell numbers established by preliminary experiments). After 24 hours, medium containing 1% FBS was used on both the lower and upper surfaces. One day later, the medium of the upper chamber was replaced with 500 μl medium containing 1% FBS without any drug treatment. The medium was replaced with medium containing 10% FBS and 25 ng/ml EGF in the lower chamber. The effect of beta-adrenergic and opioidergic drugs was tested by adding a 100 μM concentration of these drugs alone or in combination or vehicle alone in both lower and upper chambers. After 48 hours of incubation, the noninvasive cells that remained within the inserts were removed with a cotton swab. Cells that traversed through the Matrigel and the polycarbonate filter (8-μm pore size) attached to the lower surface were stained with 0.5% crystal violet for calculating the invasion index. Cells were visualized and photographed as described in the migration assay. The photographs were used to count invasive cells in Adobe Photoshop.

[2] = tested on: NK cells and macrophages in tumor tissues; test: Immunocytochemistry and flow cytometry of tumor-infiltrating immune cells; type: in vivo, rat
Procedure: Thin paraffin sections (5 μm) of tumors were stained using the ABC Elite Vectastain Kit (Vector Labs) according to the manufacturer's instructions using various primary antibodies. Details of all primary antibodies used are described above. In addition, cell proliferation-associated antigen (Ki-67; 1:200) were purchased from Abcam. After the primary antibody incubation and PBS wash, sections were incubated with peroxidase-coupled anti-rabbit Ig ImmPRESS reagent (Vector Laboratories, Inc.). Antigen localization was achieved by using the 3,3′-diaminobenzidine-peroxidase reaction, and sections were dehydrated, and cover slipped. To evaluate the immunohistochemical staining, sections were photographed using a Nikon-TE 2000 inverted microscope. Intensity of staining was categorized as negative and strongly positive (27). Brown-stained spots are immuno positive cells. Data are means±SEM obtained from 3 serial sections of 5 to 6 animals in each group.
(§1) Tumor-infiltrating immune cells were collected from MDA-MB-231 cell xenograft tumors to examine and compare the immune cell population among control and drug-treated animals. Briefly, single-cell suspensions of tumor tissue were achieved by mincing the tissue with a scalpel blade using a crisscross method, ground with 1-ml of ACK lysing buffer to remove red blood cells. The cell suspensions were filtered through a 70-micron sieve and then washed with PBS. Cells from the tumor were collected and dispersed with 100 μl of PBS and stained by the addition of fluorescence-conjugated antibodies. For flow cytometry experiments, single-cell suspension derived from tumors, PBMC, and splenocytes were used to characterize the immune cell population. Fluorophore-conjugated antibodies were used to detect surface markers of specific cell types and markers are as follows: for NK cells (CD161a (10/78)), tissue macrophage (RT1B (OX-6)), dendritic cells (CD103 (OX-62)), peripheral monocytes (CD11b (ED8)), B cells (CD45RA (OX-33)), and DAPI (Sigma) was used to exclude dead cells.
Immune cells from the tumor, PBMC, and splenocyte samples were examined by following the gating strategy as described below. First, side scatter area (SSC-A) versus forward scatter area (FSC-A) were used to exclude cellular debris, then forward scatter height (FSC-H) versus FSC-A were used to select single cells. Single cells were sub-gated using DAPI viability dye and a further live cell population was used to select markers. Expression of a particular cell surface marker in a specific population of cells was identified and represented as single parameter histograms. Unstained cells and compensation beads (BD Biosciences, CA) were used to set voltages and create single stain negative and positive controls. Additional negative controls (isotype control and fluorescence minus one (FMO)) were also used to determine any non-specific binding in the present study. The data collected from each sample were exported and analyzed using FlowJo™ version 10.7.

[3] = tested on: MDA-MB-231-cell-derived xenografts; test: Survival study of nude rats inoculated with MDA-MB-231 cells; type: in vivo, rat; settings: Kaplan-Meier; control animals about 28 days
Procedure: For the following study and survival study, MDA-MB 231 cells (ATCC) were grown until about 90% confluence just 1 day before injection. On the day of injection, after checking cell viability with trypan blue, MDA-MB 231 cells were diluted in PBS at a final concentration of 1×10^7 cells/rat in 200-μl of PBS-50% Matrigel (BD Biosciences, San Jose, CA) mixture and injected subcutaneously (SC) into the right flank of the rats. […] Tumor shrinkage/growth was measured in animals daily and animal weights were measured every other day. […] Three dimensions of tumor were measured using electronic calipers, and tumor volumes were calculated by the formula L×W^2/2. The mean±SEM of tumor volume was calculated weekly for each experimental group, and the data are expressed as mean absolute tumor volume. After the animals were sacrificed, the subcutaneous tumors were excised intact from the rats to determine the tumor weight in grams and photographed to visualize differences in tumor morphology and compare size. A portion of the excised tumors was snap-frozen by immersion in liquid nitrogen and stored at −80° C. until further use.
The animals were treated with the same drug treatment regimens and euthanized as described previously. […] At the endpoint (prior to the onset of death), the animals were euthanized, and the survival curves were plotted in a Kaplan-Meier survival curve.

[4] = tested on: NK cells, monocytes and macrophages in PBMC and spleen; test: Flow cytometry of immune cells in PBMC and spleen of xenografted rats; type: in vivo, rat; settings: for NK cell numbers in PBMC and spleen: CD161a+ NK cells, flow cytometry
Procedure: Peripheral blood mononuclear cells (PBMC) from control and drug-treated rats were isolated from freshly obtained EDTA whole blood by density gradient purification (Lymphoprep™, Stemcell Technologies™, Vancouver, BC, Canada) using 15 mL SepMate™ tubes (Stemcell Technologies™) as per the manufacture's protocol. The pelleted cells (PBMC) were counted in a hemocytometer and assayed for viability by the trypan blue dye exclusion method. PBMC cell pellets from 3 animals in each group were pooled, washed three times with PBS, and finally resuspended in 2 ml RPMI medium containing 10% heat-inactivated FBS (HI-FBS) and used for NK cell cytotoxicity. Aliquots of PBMC were frozen down at −80° C. by resuspending cells in freezing media containing HI-FBS and 10% DMSO in aliquots of 5-10×10^6 cells/mL using Nalgene Mr. Frosty Cryo 1° C. freezing containers (Thermo Fisher Scientific) before storage in liquid nitrogen. For flow cytometric analysis, frozen PBMC was thawed and resuspended in RPMI-1640 and was evaluated for viability by trypan blue, and all were […], then washed with PBS before starting flow cytometer experiments.
as §1
Immune cells from the tumor, PBMC, and splenocyte samples were examined by following the gating strategy as described below. First, side scatter area (SSC-A) versus forward scatter area (FSC-A) were used to exclude cellular debris, then forward scatter height (FSC-H) versus FSC-A were used to select single cells. […] Additional negative controls (isotype control and fluorescence minus one (FMO)) were also used to determine any non-specific binding in the present study. The data collected from each sample were exported and analyzed using FlowJo™ version 10.7.

[5] = tested on: MDA-MB-231, MDA-MB-468, and T47D cells; test: Transwell cell migration assay; type: cell-based, human; settings: 100 μM, 12 hours
Procedure: Cell migration assay was performed following the procedure described previously (26). In brief, the upper insert chambers (8-μm pore polycarbonate membrane) were seeded with cells at a density of 5×10^4 cells (cell numbers established by preliminary experiments) per well in the appropriate serum-free medium. A 10% FBS-containing media was then added to the lower chamber to serve as a chemoattractant. […] The photographs were used to count the number of migrated cells in Adobe Photoshop.

| Structure (SMILES) | cell invasion [1] | percentage of CD161+ NK cells in the tumor tissues [2] | percentage of CD163+ macrophages in the tumor tissues [2] | mean life span (survival) [3] [days] | NK cell numbers in PBMC and spleen [4] | cell migration [5] | macrophage numbers in spleen ([4]; RT1B+ macrophages) |
| --- | --- | --- | --- | --- | --- | --- | --- |
| CC1(C)SSC(C)(C)[C@@H](NC(=O)[C@@H](N)Cc2ccc(O)cc2)C(=O)NCC(=O)N[C@@H](Cc2ccccc2)C(=O)N[C@H]1C(=O)O [DPDPE, (D-Pen^2, D-Pen^5)-enkephalin] | decreased cell invasion | increased | decreased | 40 | increased | significant but moderate inhibitory effects | – |
| O=C1CC[C@@]2(O)[C@H]3Cc4ccc(O)c5c4[C@@]2(CCN3CC2CC2)[C@H]1O5 [NTX, 17-(cyclopropylmethyl)-4,5α-epoxy-3,14-dihydroxymorphinan-6-one] | decreased cell invasion | increased | decreased | 45 | increased | significant but moderate inhibitory effects | – |
| CC(C)NCC(O)COc1cccc2ccccc12 (stereo not shown) [PRO, propranolol] | decreased cell invasion | increased | decreased | 45 | increased | significant but moderate inhibitory effects | reduced |

Source: patent US20240390490A1, “PHARMACEUTICAL COMPOSITIONS FOR THE TREATMENT OF CANCERS” (Rutgers, The State University of New Jersey, priority 2021, published 2024)
